One experiment concerns glioma cells. In words: total intracellular glutathione content in glioma cells. The format is cell-based, human. How it is done:
To determine if limiting cystine uptake via system Xc reduces the total intracellular glutathione content (GSH and glutathione disulfide), intracellular glutathione concentrations were determined in the presence and absence of sulfasalazine.

Experiment [1] relates to glioma cell lines (D-54MG, U-87MG, U-251MG and STTG1) and a primary glioma culture (GBM62). Put plainly: growth curves of glioma cells over 5 days. The format is cell-based, human. The conditions noted are these: 5 days; 0.1 and 0.25 mM (S)-4-CPG, 0.25 and 0.5 mM sulfasalazine; all glioma cell lines and GBM62 (FIGS. 3A, 3B). How it is done: To examine whether the depletion of glutathione via inhibition of cystine uptake by system Xc affects the growth of glioma cells, growth curves for 4 glioma cell lines (D-54MG, U-87MG, U-251MG and STTG1) and a primary glioma culture (GBM62) were established.
In the presence of 0.25 mM (S)-4-CPG, growth of D-54MG cells indeed recovered by the addition of fourfold excess of cystine (FIG. 3E), but not with glutamate (FIG. 3D), the second substrate for system Xc.

The subject of the next experiment is cultured glioma cells. Put plainly: glutathione levels in cultured glioma cells (monochlorobimane assay). The format is cell-based, human. How it is done: (§1) The control group and treatment group animals were those described in FIG. 7A above. For these experiments, four mice (two control and two treatment) were sacrificed at 44 days after tumor induction, and brains were rapidly frozen and cryosectioned to […], thawed on ice, and then incubated with 100 μM monochlorobimane for 10 min. Fluorescence intensities were examined using a quantitative fluorescence imaging system comparing side-by-side slices from control group and treatment group animals. In these experiments, 10 slices were examined per animal. […] After treatment with 8 mg sulfasalazine 2 times per day, glutathione levels decreased approximately 30% (from 100+/−5.6 to 71.7+/−7.5 fluorescence units; p 0.01; t test) in tumors as compared with control animals (receiving saline alone). In parallel studies, the same assay was used on cultured glioma cells to validate these readouts. A 30% decrease in glutathione levels correlates with the glutathione depletion achieved with 70 μM sulfasalazine administered for 24 h to cultured cells; the maximal decrease achieved with 250 μM sulfasalazine in cultured U87-MG cells was 68% (data not shown).

In another experiment the test system is caspase-3. In words: activated caspase-3 by Western blot analysis. The format is cell-based, human. Conditions: 0.5 mM; D-54MG cells (FIG. 5C). How it is done:
Because an accumulation of ROS can lead to apoptotic cell death, the ability of system Xc inhibitors to induce apoptosis in glioma cells was examined. […] Often apoptosis is dependent on caspase activities, so it was determined whether the system Xc inhibitors induce activated caspase-3, which is the convergent enzyme in the caspase-dependent signaling cascade. […] With 1 mM sulfasalazine, 90% of cells died over the 5 d incubation (FIG. 5E).

A further experiment deals with D54-MG glioma cells. In words: glutathione levels in tumor sections (monochlorobimane fluorescence). The format is in vivo, CB-17 scid mice. Conditions: 8 mg 2 times per day, 44 days after tumor induction. How it is done:
as §1

Molecules are shown by their SMILES.

As to `O=C(O)c1cc(/N=N/c2ccc(S(=O)(=O)Nc3ccccn3)cc2)ccc1O` [sulfasalazine], the intracellular glutathione concentration entry with glioma cells (0.25 mM, glioma cells D-54MG, U-87MG, U-251MG and primary glioma culture GBM64 (FIG. 2F)) is “depleted intracellular glutathione concentration”; in the experiment with glioma cells (D-54MG glioma cells, sulfasalazine 50-500 μM, time and dose-dependent, after 24 h (FIG. 2D)), “almost complete glutathione depletion”. Moreover, in experiment [1], the “growth of glioma cells” value is “dose-dependent growth inhibitions”. The “decrease in glutathione levels in cultured cells” value with cultured glioma cells (70 μM for 24 h) is listed as 30%. In the experiment with cultured glioma cells (250 μM, cultured U87-MG cells, data not shown), the “maximal decrease in glutathione levels” value is on record as 68%. In the experiment with caspase-3, the “activated form of caspase-3” value is recorded as “increased the activated form of caspase-3”. In the experiment with D54-MG glioma cells (control 100+/−5.6), the “glutathione levels in tumors” value was 71.7+/−7.5 fluorescence units. Moreover, the “decrease of glutathione levels in tumors” value in the experiment with D54-MG glioma cells (versus saline control) was “approximately 30%”.

Source of the values: patent US8748445B2, “Methods for treating glioma” (The UAB Research Foundation, priority 2004, dated 2014).
